Consider 13 molecules from US11827628B2, “Compositions and methods for inhibition of the JAK pathway” (Rigel Pharmaceuticals, Inc., priority 2005, dated 2023).

Molecules are shown by their SMILES.

What is called IC50 is the concentration at which inhibition is half-maximal.

The first test has as its system IL-4 stimulated expression of CD23 in human Ramos B cells (JAK-1 and JAK-3). As to the kind of experiment: Assay for Ramos B-Cell Line Stimulated with IL-4 (CD23 upregulation, FACS). Type of test: cell-based. The settings on record: Homo sapiens, Ramos, Ramos B-cell line stimulated with IL-4; CD23 expression by FACS; read-out: IC50, Example 41. The text has this: One means of assaying for such inhibition is detection of the effect of the 2,4-substituted pyrimidinediamine compounds on the upregulation of downstream gene products. In the Ramos/IL4 assay, B-cells are stimulated with the cytokine Interleukin-4 (IL-4) leading to the activation of the JAK/Stat pathway through phosphorylation of the JAK family kinases, JAK1 and JAK3, which in turn phosphorylate and activate the transcription factor Stat-6. […] To study the effect of inhibitors (e.g., the 2,4-substituted pyrimindinediamine compounds described herein) on the JAK1 and JAK3 kinases, human Ramos B cells are stimulated with human IL-4. Twenty to 24 hours post stimulation, cells are stained for upregulation of CD23 and analyzed using flow cytometry (FACS). […] An exemplary assay of this type is described in greater detail in Example 41
B-cells stimulated with cytokine Interleukin-4 (IL-4) activate the JAK/Stat pathway through phosphorylation of the JAK family kinases, JAK-1 and JAK-3, which in turn phosphorylate and activate the transcription factor Stat-6. […] To study the effect of inhibitors on the JAK family kinases, human Ramos B cells are stimulated with human IL-4.
The Ramos B-cell line was acquired from ATCC (ATCC Catalog No. CRL-1596). The cells were cultured in RPMI 1640 (Cellgro, MediaTech, Inc., Herndon, VA, Cat No. 10-040-CM) with 10% fetal bovine serum (FBS), heat inactivated (JRH Biosciences, Inc, Lenexa, Kansas, Cat No. 12106-500M) according to ATCC propagation protocol. Cells were maintained at a density of 3.5×10^5. The day before the experiment, Ramos B-cells were diluted to 3.5×10^5 cells/mL to ensure that they were in a logarithmic growth phase.
Cells were spun down and suspended in RPMI with 5% serum. 5×10^4 cells were used per point in a 96-well tissue culture plate. Cells were pre-incubated with compound or DMSO (Sigma-Aldrich, St. Louis, MO, Cat No. D2650) vehicle control for 1 hour in a 37° C. incubator. Cells were then stimulated with IL-4 (Peprotech Inc., Rocky Hill, NJ, Cat No. 200-04) for a final concentration of 50 units/mL for 20-24 hours. Cells were then spun down and stained with anti-CD23-PE(BD Pharmingen, San Diego, CA, Cat No. 555711) and analyzed by FACS. Detection was performed using a BD LSR I System Flow Cytometer, purchased from Becton Dickinson Biosciences of San Jose, California The IC50 calculated based on the results of this assay are provided in TABLE XII.
In general terms: A flow cytometer gives signals particle by particle.
Regarding `CN(C)C(=O)COc1ccc(Nc2nc(Nc3ccc(S(N)(=O)=O)cc3)ncc2F)cc1` [Compound I-128, N2-(4-Aminosulfonylphenyl)-N4-(4-dimethylaminocarbonylmethoxyphenyl)-5-fluoro-2,4-pyrimidinediamine], the IC50 worked out at 871 nM.

With `CN(C)C(=O)COc1ccc(Nc2nc(Nc3cccc(S(N)(=O)=O)c3)ncc2F)cc1` [Compound I-129, N2-(3-Aminosulfonylphenyl)-N4-(4-dimethylaminocarbonylmethoxyphenyl)-5-fluoro-2,4-pyrimidinediamine], the IC50 was found to be 612 nM.

With `CN(C)C(=O)COc1ccc(Nc2nc(Nc3ccc(Cl)c(S(N)(=O)=O)c3)ncc2F)cc1Cl` [Compound I-140, N2-(3-Aminosulfonyl-4-chlorophenyl)-N4-(3-chloro-4-dimethylaminocarbonylmethoxyphenyl)-5-fluoro-2,4-pyrimidinediamine], the IC50 turned out to be 388 nM.

For `CNC(=O)COc1ccc(Nc2nc(Nc3ccc(S(N)(=O)=O)cc3)ncc2F)cc1` [Compound I-143, N2-(4-Aminosulfonylphenyl)-5-fluoro-N4-(4-methylaminocarbonylmethoxyphenyl)-2,4-pyrimidinediamine], the IC50 stood at 1190 nM.

Regarding `CNC(=O)COc1ccc(Nc2nc(Nc3cccc(S(N)(=O)=O)c3)ncc2F)cc1` [Compound I-144, N2-(3-Aminosulfonylphenyl)-5-fluoro-N4-(4-methylaminocarbonylmethoxyphenyl)-2,4-pyrimidinediamine], the half-inhibitory concentration (IC50) was 1010 nM.

Consider `CNC(=O)COc1ccc(Nc2nc(Nc3ccc(S(N)(=O)=O)cc3)ncc2F)cc1Cl` [Compound I-146, N2-(4-Aminosulfonylphenyl)-N4-(3-chloro-4-methylaminocarbonylmethoxyphenyl)-5-fluoro-2,4-pyrimidinediamine], for which the IC50 turned out to be 364 nM.

For `Cc1cc(Nc2nc(Nc3cccc(S(N)(=O)=O)c3)ncc2F)ccc1OCc1ccccn1` [Compound I-167, N2-(3-Aminosulfonylphenyl)-5-fluoro-N4-[(4-((pyridin-2-yl)methoxy)-3-methylphenyl)]-2,4-pyrimidinediamine], the IC50 is 142 nM.

The same test, now with this note: Ramos B-cell line stimulated with IL-4; CD23 expression by FACS; read-out: IC50, Example 41.
In the case of `NC(=O)COc1ccc(Nc2nc(Nc3ccc(S(N)(=O)=O)cc3)ncc2F)cc1` [Compound I-115, N4-(4-Aminocarbonylmethoxy)phenyl-N2-(4-aminosulfonyl)phenyl-5-fluoro-2,4-pyrimidinediamine], the IC50 worked out at 793 nM.

With `CC(C)(Oc1ccc(Nc2nc(Nc3ccc(S(N)(=O)=O)cc3)ncc2F)cc1)C(N)=O` [Compound I-125, N4-[4-(1-Aminocarbonyl-1-methyl)ethoxy]phenyl-N2-(4-aminosulfonyl)phenyl-5-fluoro-2,4-pyrimidinediamine], the IC50 was determined as 538 nM.

In the case of `CCN(CC)CCNS(=O)(=O)c1cccc(Nc2ncc(F)c(Nc3ccc(OCc4ccccn4)cc3)n2)c1` [Compound I-166, N2-[3-(2-N,N-Diethylaminoethyl)aminosulfonylphenyl)-5-fluoro-N4-[4-(2-pyridinyl)methyleneoxyphenyl]-2,4-pyrimidinediamine], the IC50 stood at 616 nM.

For the molecule `CCOc1cc(Nc2nc(Nc3ccc(C)c(S(=O)(=O)NC)c3)ncc2F)ccc1-c1ccccn1` [Compound I-170, 5-Fluoro-N2-[3-N-(methyl)aminosulfonyl-4-methylphenyl]-N4-[4-(2-pyridinyl)-3-methylmethyleneoxyphenyl]-2,4-pyrimidinediamine], the IC50 was 451 nM.

For the molecule `Cc1cnc(Nc2ccc(S(N)(=O)=O)cc2)nc1Nc1ccc(OCc2ccccn2)cc1` [Compound I-181, N2-(4-Aminosulfonylphenyl)-5-methyl-N4-[4-(2-pyridinyl)methyleneoxyphenyl]-2,4-pyrimidinediamine], the IC50 was found to be 13 nM.

As to `NS(=O)(=O)c1ccc(Nc2ncc(F)c(Nc3cccc(OCc4cccnc4)c3)n2)cc1` [Compound I-185, N2-(4-Aminosulfonylphenyl)-5-fluoro-N4-[3-(3-pyridinyl)methyleneoxyphenyl]-2,4-pyrimidinediamine], the IC50 is 298 nM.
